Measurements taken from PMC3630508 (Molecular immunology, 2012).

What was measured:
[1] = aqueous solubility; qualitative, data not shown
[2] = system: complement activation; type: in vivo; conditions: 20 mg E23A intra-peritoneal, male Wistar rats, one hour

Row | Structure (SMILES) | solubility [1] | adverse effects / overt toxicity upon necropsy [2]
1 | CC[C@H](C)[C@H](N)C(=O)N[C@@H](C)C(=O)N[C@@H](CC(C)C)C(=O)N[C@H](C(=O)N[C@@H](CC(C)C)C(=O)N[C@@H](CCC(=O)O)C(=O)N1CCC[C@H]1C(=O)N[C@H](C(=O)N[C@@H](CS)C(=O)N[C@@H](CS)C(=O)N[C@@H](CCC(N)=O)C(=O)N[C@@H](CCC(=O)O)C(=O)N[C@@H](CCCNC(=N)N)C(=O)N[C@@H](C)C(=O)N[C@@H](C)C(=O)O)[C@@H](C)CC)[C@@H](C)CC [PA] | aqueous solubility of the compound was significantly improved | 
2 | CC[C@H](C)[C@H](NC(=O)[C@H](C)NC(=O)[C@@H]1CCCN1)C(=O)N[C@@H](CS)C(=O)N[C@@H](CCC(N)=O)C(=O)N[C@@H](CCCNC(=N)N)C(=O)N[C@@H](C)C(=O)N[C@H](C(=O)N[C@@H](C)C(=O)N[C@H](C(=O)N[C@@H](CC(C)C)C(=O)NCC(=O)N[C@H](C(=O)N[C@H](C(=O)NCC(=O)N[C@@H](CO)C(=O)N[C@@H](CC(N)=O)C(=O)N[C@H](C(=O)N[C@@H](CO)C(=O)NCC(=O)N[C@H](C(=O)N[C@H](C(=O)N[C@@H](CCC(=O)O)C(=O)N[C@H](C(=O)N[C@@H](C)C(=O)N[C@@H](C)C(=O)N[C@@H](CS)C(=O)N[C@H](C(=O)N[C@@H](CC(C)C)C(=O)N[C@@H](CC(C)C)C(=O)O)[C@@H](C)CC)[C@@H](C)CC)[C@@H](C)O)[C@@H](C)O)[C@@H](C)O)C(C)C)[C@@H](C)O)[C@@H](C)O)[C@@H](C)O [E23A] | relative insolubility | no overt adverse effects
